PMC12503911, “Cytotoxicity of Atropisomeric [1,1′‐Binaphthalene]‐2,2′‐Diamines (BINAM) and Analogs in Human Cancer Cells: Enantioselectivity, Structure–Activity Relationships, and Mechanism” (Chemmedchem, 2025)
Like-named read-outs stand apart in the source and are kept apart here.

Legend:
Experiment in all cases: biochemical
Design in all cases: 33PanQinase radiometric kinase activity assay, residual activity in % of control, contract lab Reaction Biology
Conditions in all cases: mean of intraexperimental duplicates, n = 1
NEK2 = molecular target: T1, NEK2 (Homo sapiens, UniProt P51955)
T1 sequence (P51955 1-445): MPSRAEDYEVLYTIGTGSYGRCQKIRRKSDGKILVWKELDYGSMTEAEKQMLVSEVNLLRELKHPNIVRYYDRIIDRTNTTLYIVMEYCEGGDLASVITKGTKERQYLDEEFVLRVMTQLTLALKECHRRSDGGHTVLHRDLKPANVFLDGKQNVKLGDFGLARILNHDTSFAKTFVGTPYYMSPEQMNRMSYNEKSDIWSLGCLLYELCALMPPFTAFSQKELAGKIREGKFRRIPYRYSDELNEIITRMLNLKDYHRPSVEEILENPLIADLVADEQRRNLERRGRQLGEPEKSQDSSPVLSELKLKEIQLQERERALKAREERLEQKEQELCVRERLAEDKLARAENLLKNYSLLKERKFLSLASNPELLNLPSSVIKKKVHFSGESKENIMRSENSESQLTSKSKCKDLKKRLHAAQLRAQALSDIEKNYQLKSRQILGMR
Procedure: (§1) Kinase Screening was performed at Reaction Biology (Freiburg, Germany) by using the ^33PanQinase Assay.^[ [90] ^] Based on this knowledge, we commissioned a kinase screening by the firm Reaction Biology, targeting those kinases whose inhibition has shown an indirect effect on microtubules. In our selection, we included additional kinases that are known to be involved in centrosome amplification (PLK4^[ [82] ^]), centrosome clustering (CDK1/2,^[ [83] ^] PLK1^[ [84] ^]), spindle multipolarity (SRC^[ [85] ^]), microtubule dynamics (AKT1^[ [86] ^]), and LIMK1/2 activation (ROCK1^[ [87] ^]) or are crucial for the mitosis (BUB1B, NEK2/9, WEE1^[ [88] ^]). Nonetheless, 1(R) and 1(S) at 10 µM had almost no inhibitory effects on any of the chosen kinases (Table 4 ). Only Aurora A (mean residual activity for 1(R): 86%, 1(S): 98%) and ASK1 (mean residual activity for 1(R): 90%, 1(S): 117%) were slightly enantioselectively impacted. However, we theorize that those marginal inhibitions are not explanatory for the antiproliferative and morphological effects of 1(R) on cancer cells.

CHK2 = molecular target: T2, CHK2 (Homo sapiens, UniProt O96017)
T2 construct: gene CHEK2
T2 sequence (O96017 whole entry): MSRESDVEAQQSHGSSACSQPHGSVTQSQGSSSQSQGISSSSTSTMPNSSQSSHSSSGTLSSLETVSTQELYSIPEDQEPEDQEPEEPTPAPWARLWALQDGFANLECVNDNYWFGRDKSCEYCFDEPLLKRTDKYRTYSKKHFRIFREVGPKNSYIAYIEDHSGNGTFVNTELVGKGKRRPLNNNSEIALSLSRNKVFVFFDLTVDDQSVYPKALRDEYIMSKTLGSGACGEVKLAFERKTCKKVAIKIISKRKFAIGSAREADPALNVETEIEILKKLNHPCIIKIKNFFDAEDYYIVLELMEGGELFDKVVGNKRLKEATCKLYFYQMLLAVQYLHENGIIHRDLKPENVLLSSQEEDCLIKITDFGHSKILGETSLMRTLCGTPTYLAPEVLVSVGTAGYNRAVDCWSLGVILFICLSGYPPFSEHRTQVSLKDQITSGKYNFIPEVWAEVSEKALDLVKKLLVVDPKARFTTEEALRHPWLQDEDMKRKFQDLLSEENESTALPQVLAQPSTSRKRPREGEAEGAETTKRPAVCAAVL
Procedure: as §1

AKT1 = AKT1 (Homo sapiens, UniProt P31749)
AKT1, sequence (P31749 whole entry): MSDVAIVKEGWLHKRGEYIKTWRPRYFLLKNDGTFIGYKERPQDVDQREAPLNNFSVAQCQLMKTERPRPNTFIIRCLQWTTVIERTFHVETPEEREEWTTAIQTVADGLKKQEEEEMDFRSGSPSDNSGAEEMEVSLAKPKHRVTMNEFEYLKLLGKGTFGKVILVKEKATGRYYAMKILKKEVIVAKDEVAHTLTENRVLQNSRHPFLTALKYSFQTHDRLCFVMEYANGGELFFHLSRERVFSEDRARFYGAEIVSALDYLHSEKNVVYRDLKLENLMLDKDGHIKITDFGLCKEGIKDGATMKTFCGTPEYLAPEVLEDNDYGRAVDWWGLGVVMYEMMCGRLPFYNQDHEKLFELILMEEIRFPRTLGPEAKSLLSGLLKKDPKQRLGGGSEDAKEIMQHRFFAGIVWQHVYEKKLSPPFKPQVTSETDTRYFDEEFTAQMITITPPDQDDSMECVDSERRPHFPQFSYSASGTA
Procedure: as §1

CDK1/CycB1 = CDK1/CycB1 (Homo sapiens, UniProt P06493)
CDK1/CycB1, sequence (P06493 whole entry): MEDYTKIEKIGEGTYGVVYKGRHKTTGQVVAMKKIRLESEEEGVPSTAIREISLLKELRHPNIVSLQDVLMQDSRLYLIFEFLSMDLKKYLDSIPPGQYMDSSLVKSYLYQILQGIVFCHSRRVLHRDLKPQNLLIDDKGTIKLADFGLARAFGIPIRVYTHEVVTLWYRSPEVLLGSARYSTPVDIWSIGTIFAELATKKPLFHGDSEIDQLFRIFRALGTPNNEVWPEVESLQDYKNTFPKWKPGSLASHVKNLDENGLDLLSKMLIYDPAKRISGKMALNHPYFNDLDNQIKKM
CDK1/CycB1, sequence (P14635 whole entry partner): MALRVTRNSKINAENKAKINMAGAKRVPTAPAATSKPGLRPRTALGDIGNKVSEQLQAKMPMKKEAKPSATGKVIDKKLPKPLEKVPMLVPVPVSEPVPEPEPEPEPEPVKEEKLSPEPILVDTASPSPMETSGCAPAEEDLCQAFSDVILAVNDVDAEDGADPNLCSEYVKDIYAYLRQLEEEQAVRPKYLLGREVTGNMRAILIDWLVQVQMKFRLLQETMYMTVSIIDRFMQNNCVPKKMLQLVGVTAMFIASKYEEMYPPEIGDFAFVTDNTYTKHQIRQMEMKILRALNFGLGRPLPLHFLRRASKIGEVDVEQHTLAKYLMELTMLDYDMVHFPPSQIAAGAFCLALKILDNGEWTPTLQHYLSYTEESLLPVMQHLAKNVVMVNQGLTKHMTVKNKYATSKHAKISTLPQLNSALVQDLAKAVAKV
Procedure: as §1

CHK1 = molecular target: T3, CHK1 (Homo sapiens, UniProt O14757)
T3 construct: gene CHEK1
T3 sequence (O14757 1-476): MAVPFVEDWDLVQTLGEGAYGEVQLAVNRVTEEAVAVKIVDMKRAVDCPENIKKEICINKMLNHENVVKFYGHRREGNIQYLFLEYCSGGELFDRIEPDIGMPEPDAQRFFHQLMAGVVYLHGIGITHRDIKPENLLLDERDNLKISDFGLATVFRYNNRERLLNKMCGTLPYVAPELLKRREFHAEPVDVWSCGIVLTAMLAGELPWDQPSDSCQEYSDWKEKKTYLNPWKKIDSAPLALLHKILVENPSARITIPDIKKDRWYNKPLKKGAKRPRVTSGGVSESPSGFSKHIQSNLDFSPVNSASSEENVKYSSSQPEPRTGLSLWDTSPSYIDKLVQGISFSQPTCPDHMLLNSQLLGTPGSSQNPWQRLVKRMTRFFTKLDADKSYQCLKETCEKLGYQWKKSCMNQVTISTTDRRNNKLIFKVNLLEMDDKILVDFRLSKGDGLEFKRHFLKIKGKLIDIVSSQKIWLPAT
Procedure: as §1

AuroraC = molecular target: T4, AuroraC (Homo sapiens, UniProt Q9UQB9)
T4 construct: gene AURKC
T4 sequence (Q9UQB9 1-309): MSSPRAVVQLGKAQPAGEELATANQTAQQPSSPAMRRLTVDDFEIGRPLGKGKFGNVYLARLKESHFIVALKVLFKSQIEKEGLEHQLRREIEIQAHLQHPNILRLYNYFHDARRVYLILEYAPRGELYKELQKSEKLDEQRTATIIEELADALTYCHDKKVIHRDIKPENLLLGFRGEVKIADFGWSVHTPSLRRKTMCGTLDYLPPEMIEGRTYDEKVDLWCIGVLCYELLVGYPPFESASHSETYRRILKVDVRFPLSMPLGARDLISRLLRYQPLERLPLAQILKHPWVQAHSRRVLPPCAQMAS
Procedure: as §1

LIMK2 = LIMK2 (Homo sapiens, UniProt P53671)
LIMK2, sequence (P53671 whole entry): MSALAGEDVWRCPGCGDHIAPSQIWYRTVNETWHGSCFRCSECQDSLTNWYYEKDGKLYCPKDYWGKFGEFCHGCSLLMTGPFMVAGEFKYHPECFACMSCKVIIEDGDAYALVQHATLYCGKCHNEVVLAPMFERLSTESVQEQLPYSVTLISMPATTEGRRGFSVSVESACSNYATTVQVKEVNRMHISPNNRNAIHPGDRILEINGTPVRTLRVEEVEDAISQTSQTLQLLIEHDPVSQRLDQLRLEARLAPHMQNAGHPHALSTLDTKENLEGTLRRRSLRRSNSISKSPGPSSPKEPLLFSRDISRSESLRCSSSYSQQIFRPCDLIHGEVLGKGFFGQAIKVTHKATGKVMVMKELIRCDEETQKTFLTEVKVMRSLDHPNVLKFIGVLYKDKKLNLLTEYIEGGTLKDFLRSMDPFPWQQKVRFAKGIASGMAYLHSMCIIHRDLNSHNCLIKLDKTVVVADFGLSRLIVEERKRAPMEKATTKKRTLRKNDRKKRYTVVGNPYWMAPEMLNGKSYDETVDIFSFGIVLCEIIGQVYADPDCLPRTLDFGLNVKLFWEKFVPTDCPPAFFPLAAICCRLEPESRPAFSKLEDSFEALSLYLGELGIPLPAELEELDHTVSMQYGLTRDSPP
Procedure: as §1

PLK1 = PLK1 (Homo sapiens, UniProt P53350)
PLK1, sequence (P53350 whole entry): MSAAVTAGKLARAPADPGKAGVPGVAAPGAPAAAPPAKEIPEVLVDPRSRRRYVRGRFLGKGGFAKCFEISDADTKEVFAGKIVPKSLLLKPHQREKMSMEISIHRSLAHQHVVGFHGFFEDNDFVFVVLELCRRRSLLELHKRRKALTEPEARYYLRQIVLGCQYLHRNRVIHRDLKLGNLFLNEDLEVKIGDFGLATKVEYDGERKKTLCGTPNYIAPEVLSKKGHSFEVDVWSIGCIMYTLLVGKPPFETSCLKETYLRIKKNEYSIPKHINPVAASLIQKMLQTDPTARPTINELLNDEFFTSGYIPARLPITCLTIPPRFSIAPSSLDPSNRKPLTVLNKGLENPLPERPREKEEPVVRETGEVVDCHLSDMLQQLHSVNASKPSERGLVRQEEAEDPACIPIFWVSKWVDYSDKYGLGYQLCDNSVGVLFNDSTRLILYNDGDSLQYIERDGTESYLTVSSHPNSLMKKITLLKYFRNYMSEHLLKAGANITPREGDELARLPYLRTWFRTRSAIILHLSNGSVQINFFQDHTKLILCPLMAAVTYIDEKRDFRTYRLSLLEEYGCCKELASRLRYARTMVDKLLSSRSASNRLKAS
Procedure: as §1

ROCK1 = ROCK1 (Homo sapiens, UniProt Q13464)
ROCK1, sequence (Q13464 whole entry): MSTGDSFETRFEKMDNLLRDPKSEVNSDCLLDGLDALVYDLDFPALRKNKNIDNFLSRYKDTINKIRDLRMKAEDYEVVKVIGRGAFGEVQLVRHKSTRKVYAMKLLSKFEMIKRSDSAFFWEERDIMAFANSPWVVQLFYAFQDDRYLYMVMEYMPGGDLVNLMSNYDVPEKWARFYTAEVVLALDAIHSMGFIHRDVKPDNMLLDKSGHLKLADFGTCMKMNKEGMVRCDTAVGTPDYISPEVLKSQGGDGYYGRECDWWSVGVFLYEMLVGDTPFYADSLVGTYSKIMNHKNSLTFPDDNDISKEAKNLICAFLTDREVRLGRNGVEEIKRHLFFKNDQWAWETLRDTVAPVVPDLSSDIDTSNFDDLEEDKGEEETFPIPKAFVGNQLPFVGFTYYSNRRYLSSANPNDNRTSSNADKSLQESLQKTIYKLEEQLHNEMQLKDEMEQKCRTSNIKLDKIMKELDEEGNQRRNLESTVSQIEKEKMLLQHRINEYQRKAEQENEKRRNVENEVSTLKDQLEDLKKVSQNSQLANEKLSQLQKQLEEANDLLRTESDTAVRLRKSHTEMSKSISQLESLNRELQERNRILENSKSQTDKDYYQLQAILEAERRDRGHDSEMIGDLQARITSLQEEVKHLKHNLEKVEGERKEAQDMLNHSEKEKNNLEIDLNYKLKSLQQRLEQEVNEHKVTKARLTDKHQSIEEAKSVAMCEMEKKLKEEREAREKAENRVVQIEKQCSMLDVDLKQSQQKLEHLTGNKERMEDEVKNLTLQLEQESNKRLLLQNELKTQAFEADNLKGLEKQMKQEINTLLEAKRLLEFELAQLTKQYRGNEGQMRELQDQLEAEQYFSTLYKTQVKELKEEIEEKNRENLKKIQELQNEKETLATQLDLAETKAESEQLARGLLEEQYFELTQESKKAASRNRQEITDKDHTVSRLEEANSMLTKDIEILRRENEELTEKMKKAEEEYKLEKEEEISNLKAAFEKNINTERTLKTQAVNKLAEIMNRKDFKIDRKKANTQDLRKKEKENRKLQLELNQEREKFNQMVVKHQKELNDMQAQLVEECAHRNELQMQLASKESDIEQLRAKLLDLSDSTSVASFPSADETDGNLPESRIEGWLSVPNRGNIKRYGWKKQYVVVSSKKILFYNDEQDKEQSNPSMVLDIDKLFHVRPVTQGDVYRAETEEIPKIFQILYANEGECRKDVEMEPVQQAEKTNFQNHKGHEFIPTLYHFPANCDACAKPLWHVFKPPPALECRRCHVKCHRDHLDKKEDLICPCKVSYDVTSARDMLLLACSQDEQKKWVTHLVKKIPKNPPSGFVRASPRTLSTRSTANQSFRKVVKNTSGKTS
Procedure: as §1

[1] = read-out: Residual activities [% of control] / 1(R) 10 µM
[2] = read-out: Residual activities [% of control] / 1(S) 10 µM

Row | SMILES | remaining activity at 10 µM (NEK2; [1]) | remaining activity at 10 µM (CHK2; [1]) | remaining activity at 10 µM (AKT1; [1]) | remaining activity at 10 µM (CDK1/CycB1; [1]) | remaining activity at 10 µM (CHK1; [1]) | remaining activity at 10 µM (AuroraC; [1]) | remaining activity at 10 µM (LIMK2; [1]) | remaining activity at 10 µM (PLK1; [1]) | remaining activity at 10 µM (ROCK1; [1]) | remaining activity at 10 µM (NEK2; [2]) | remaining activity at 10 µM (CHK2; [2]) | remaining activity at 10 µM (AKT1; [2]) | remaining activity at 10 µM (CDK1/CycB1; [2]) | remaining activity at 10 µM (CHK1; [2]) | remaining activity at 10 µM (AuroraC; [2]) | remaining activity at 10 µM (LIMK2; [2]) | remaining activity at 10 µM (PLK1; [2]) | remaining activity at 10 µM (ROCK1; [2])
1 | Nc1ccc2ccccc2c1-c1c(N)ccc2ccccc12 [1(R), (R)‐[1,1′‐binaphthalene]‐2,2′‐diamine] | 106% | 97% | 99% | 101% | 94% | 101% | 106% | 95% | 100% |  |  |  |  |  |  |  |  | 
2 | Nc1ccc2ccccc2c1-c1c(N)ccc2ccccc12 [1(S), S‐BINAM] |  |  |  |  |  |  |  |  |  | 96% | 104% | 101% | 100% | 95% | 100% | 98% | 91% | 97%
